We go through 14 compounds from PubChem BioAssay (NCI).

Test systems include MDA-MB-231 breast; NCI-H522 lung; HOP-62 NSCLC; ACHN renal; RXF 393 renal; EKVX NSCLC; TK-10 renal; UO-31 renal; SK-MEL-2 melanoma; SK-MEL-28 melanoma.
Holding throughout (experiment): NCI anticancer screen, dose series, 48 h

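Dose response: 5 concentrations. Exposure: 48 h. Format: 96-well plates. Endpoint: linear interpolation; highest concentration if not reached. Definition used: TGI = concentration required for complete inhibition of growth.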

For the compound `CCOC(=O)C1C(=O)C=C(c2cc(C)ccc2O)CC1c1cccc(Br)c1` (configuration not stated), the TGI with MDA-MB-231 breast was 48.4 µM; with NCI-H522 lung, 35.1 µM; in the experiment with HOP-62 NSCLC, above 100 µM; in the experiment with ACHN renal, 42.2 µM; in the experiment on RXF 393 renal, 33.4 µM; in the experiment with EKVX NSCLC, 67.6 µM. For the same compound, the TGI amounted to 42.1 µM with TK-10 renal, 56.6 µM in the experiment on UO-31 renal and 39.4 µM in the experiment on SK-MEL-2 melanoma.

For `CC(C)Oc1c(O)c2c3c(oc(=O)n3C=CC2c2ccccc2F)c1OC(C)C` (configuration not stated), the TGI was above 100 µM in the experiment on SK-MEL-28 melanoma; above 100 µM in the experiment with MDA-MB-231 breast; above 100 µM in the experiment on NCI-H522 lung; above 100 µM in the experiment on HOP-62 NSCLC; above 100 µM with ACHN renal; 81.5 µM in the experiment with RXF 393 renal. Besides, the TGI with EKVX NSCLC was above 100 µM; in the experiment with TK-10 renal it was above 100 µM; with UO-31 renal, above 100 µM; with SK-MEL-2 melanoma it was 34.5 µM.

As to `O=C1NC(N2CCCC(CO)C2)=N/C1=C\c1ccc(O)cc1` (configuration not stated), the TGI in the experiment with SK-MEL-28 melanoma, in the experiment on MDA-MB-231 breast, with NCI-H522 lung, in the experiment with HOP-62 NSCLC, in the experiment with ACHN renal and in the experiment on RXF 393 renal was above 100 µM each time. Besides, the TGI in the experiment with EKVX NSCLC, in the experiment with TK-10 renal, with UO-31 renal and with SK-MEL-2 melanoma was above 100 µM each time.

Consider `COC(=O)C(I(OS(=O)(=O)c1ccc(C)cc1)c1ccccc1)=P(c1ccccc1)(c1ccccc1)c1ccccc1`, for which the TGI with SK-MEL-28 melanoma came to 28.7 µM; with MDA-MB-231 breast, 75.6 µM; with NCI-H522 lung, 27.7 µM; with HOP-62 NSCLC it was 36.8 µM; in the experiment on ACHN renal it was 32.6 µM; in the experiment with RXF 393 renal it was 39.2 µM. Moreover, the TGI in the experiment on EKVX NSCLC was 54.5 µM; in the experiment with TK-10 renal, 57 µM; with UO-31 renal, 54.8 µM; in the experiment on SK-MEL-2 melanoma it was 36.4 µM.

Turning to `CCOc1c(OC)cc(CNNc2nccs2)cc1OC`, the TGI with SK-MEL-28 melanoma, with MDA-MB-231 breast, in the experiment with NCI-H522 lung, in the experiment on HOP-62 NSCLC, in the experiment with ACHN renal and with RXF 393 renal was above 100 µM throughout. The TGI in the experiment on EKVX NSCLC, in the experiment with TK-10 renal and with UO-31 renal was above 100 µM each time.

Turning to `CCOC(=O)C1(C/C=C\CBr)CCCCCCC1=O` (configuration not stated), the TGI in the experiment on SK-MEL-28 melanoma, in the experiment on MDA-MB-231 breast, in the experiment with NCI-H522 lung, in the experiment with HOP-62 NSCLC, with ACHN renal and with RXF 393 renal was above 100 µM each time. In addition, the TGI in the experiment with EKVX NSCLC, with TK-10 renal, in the experiment on UO-31 renal and in the experiment on SK-MEL-2 melanoma was above 100 µM in each case.

In the case of `C[Si](C)(C)C1=C2C(=O)c3ccccc3C(=O)C2=C([Si](C)(C)C)[C@@H]2CCCC[C@H]12`, the TGI in the experiment on SK-MEL-28 melanoma, in the experiment on MDA-MB-231 breast, with NCI-H522 lung, in the experiment with ACHN renal, in the experiment with RXF 393 renal and in the experiment with EKVX NSCLC was above 100 µM throughout. For the same compound, the TGI in the experiment with TK-10 renal, in the experiment on UO-31 renal and with SK-MEL-2 melanoma was above 100 µM in each case.

With `Cc1cc(C)n(CN(Cn2nc(C)cc2C)c2ccc(N(Cn3nc(C)cc3C)Cn3nc(C)cc3C)cc2)n1`, the TGI in the experiment on SK-MEL-28 melanoma came out at 37.1 µM; in the experiment on MDA-MB-231 breast, 88.1 µM; in the experiment on NCI-H522 lung it was 42.5 µM; in the experiment with HOP-62 NSCLC, 52.7 µM; in the experiment with ACHN renal, 38.2 µM; in the experiment with RXF 393 renal it was 42.6 µM. For the same compound, the TGI with EKVX NSCLC came to 54.1 µM; in the experiment on TK-10 renal it was 69.8 µM; with UO-31 renal, 95.2 µM; in the experiment on SK-MEL-2 melanoma it was 50.1 µM.

With `Cc1[nH]c(=O)nc2c1C(=O)N(C(C)C)C(NC(C)C)S2` (configuration not stated), the TGI with SK-MEL-28 melanoma, in the experiment with MDA-MB-231 breast, in the experiment with NCI-H522 lung, in the experiment with HOP-62 NSCLC, in the experiment on ACHN renal and with RXF 393 renal was above 100 µM throughout. The TGI with EKVX NSCLC, with TK-10 renal, with UO-31 renal and with SK-MEL-2 melanoma was above 100 µM in each case.

For the compound `COc1cc(OC)cc(N(C)Cc2cnc3nc(N)nc(N)c3c2C)c1`, the TGI with SK-MEL-28 melanoma was above 100 µM; with MDA-MB-231 breast, above 100 µM; in the experiment on NCI-H522 lung, 43.6 µM; with HOP-62 NSCLC, above 36.1 µM; in the experiment with ACHN renal, above 100 µM; in the experiment on RXF 393 renal, above 100 µM. Further, the TGI with EKVX NSCLC, with TK-10 renal, in the experiment with UO-31 renal and with SK-MEL-2 melanoma was above 100 µM throughout.

`C=C(Cl)C(Cl)(CBr)CCC(Cl)C(C)C` (configuration not stated): the TGI amounted to 5.62 µM in the experiment on SK-MEL-28 melanoma; 9.99 µM in the experiment on MDA-MB-231 breast; 15.8 µM in the experiment on NCI-H522 lung; 2.94 µM in the experiment with HOP-62 NSCLC; 9.52 µM in the experiment on ACHN renal; 22 µM in the experiment with RXF 393 renal. Moreover, the TGI in the experiment with EKVX NSCLC is 27.9 µM; in the experiment with TK-10 renal, 3.12 µM; in the experiment with UO-31 renal, 7.4 µM; in the experiment on SK-MEL-2 melanoma it was 4.29 µM.

With `CC(C)(C)OC(=O)N1CC(COS(C)(=O)=O)c2ccc(O)cc21` (configuration not stated), the TGI in the experiment on SK-MEL-28 melanoma worked out at 3.8 µM; in the experiment on MDA-MB-231 breast, 8.41 µM; in the experiment on NCI-H522 lung, 2.39 µM; in the experiment with HOP-62 NSCLC, 8.05 µM; with ACHN renal, 3.12 µM; in the experiment on RXF 393 renal it was 0.924 µM. The TGI in the experiment on EKVX NSCLC is 4.59 µM; in the experiment on TK-10 renal, 8.76 µM; with UO-31 renal it was 5.26 µM; in the experiment with SK-MEL-2 melanoma, 2.9 µM.

In the case of `C[N+](C)([O-])Cc1cccc(NC(=O)c2ccc(C(=O)Nc3cccc(C[N+](C)(C)[O-])c3)cc2)c1`, the TGI in the experiment with SK-MEL-28 melanoma, in the experiment on MDA-MB-231 breast, in the experiment with NCI-H522 lung, in the experiment on HOP-62 NSCLC, with ACHN renal and in the experiment on RXF 393 renal was above 100 µM in each case. The TGI in the experiment on EKVX NSCLC, with TK-10 renal, in the experiment with UO-31 renal and in the experiment on SK-MEL-2 melanoma was above 100 µM each time.

For the compound `COCN1C(=O)[C@@H]2C[C@@H](OC/C=C/CBr)CN2C(=O)c2ccccc21`, the TGI was 45.4 µM in the experiment on SK-MEL-28 melanoma; 55.1 µM in the experiment on MDA-MB-231 breast; 25.9 µM in the experiment on NCI-H522 lung; 54.6 µM with HOP-62 NSCLC; 54.8 µM in the experiment with ACHN renal; 51.3 µM in the experiment with RXF 393 renal. The TGI was 50.4 µM in the experiment on EKVX NSCLC, 49.7 µM in the experiment on TK-10 renal, 40.5 µM in the experiment with UO-31 renal and above 100 µM with SK-MEL-2 melanoma.
